This is an account of results in ChEMBL document CHEMBL1134173, “FR131535, a novel water-soluble echinocandin-like lipopeptide: synthesis and biological properties” (Bioorg Med Chem Lett, 2001).

Experiment [1] has as its system Candida albicans. Put plainly: In vivo effective dose for antifungal activity on sc administration in female mice infected with 2.5*10e6 cells/mL of Candida albicans at day 10. The experiment is classed as functional.
The subject of experiment [2] is Candida albicans. Put plainly: In vivo effective dose for antifungal activity on sc administration in female mice infected with 2.5*10e6 cells/mL of Candida albicans at day 14. The experiment is classed as functional.
In experiment [3] the test system is Candida tropicalis. The experiment is described as follows: In vitro antifungal activity against Candida tropicalis YC118 at 37 degrees C for 22h. The format is functional, organism-based.
Experiment [4] deals with Candida albicans. The experiment is described as follows: In vitro inhibitory concentration required for antifungal activity against Candida albicans FP578 at 37 degrees C for 22h. The format is functional, organism-based.
Experiment [5] concerns Candida albicans. The experiment is described as follows: In vitro antifungal activity against Candida albicans FP629 at 37 degrees C for 22h. The experiment is classed as functional, organism-based.
The subject of experiment [6] is Pichia kudriavzevii. Put plainly: In vitro antifungal activity against Candida krusei YC109 at 37 degrees C for 22h. The format is functional, organism-based.
The subject of experiment [7] is Candida albicans. The experiment is described as follows: In vitro antifungal activity against Candida albicans FP582 at 37 degrees C for 22h. The experiment is classed as functional, organism-based.
Experiment [8] deals with Candida albicans. The experiment is described as follows: In vitro antifungal activity against Candida albicans FP633 at 37 degrees C for 22h. The format is functional, organism-based.
For experiment [9], the system named is Cyberlindnera jadinii. The experiment is described as follows: In vitro antifungal activity against Candida utilis YC123 at 37 degrees C for 22h. The experiment is classed as functional, organism-based. Conditions: Williopsis jadinii.
Experiment [10] relates to Aspergillus fumigatus. Put plainly: In vitro antifungal activity against Aspergillus fumigatus FD050 at 37 degrees C for 22h. The format is functional, organism-based.
For experiment [11], the system named is Cryptococcus neoformans. The experiment is described as follows: In vitro antifungal activity against Cryptococcus neoformans YC203 at 30 degrees C for 48 hr. The format is functional, organism-based.
The subject of experiment [12] is Aspergillus niger. Put plainly: In vitro antifungal activity against Aspergillus niger ATCC 9642 at 37 degrees C for 22h. To be noted: ATCC 9642, 22 h. The format is functional, organism-based.
The test system of experiment [13] is Pneumocystis carinii. The experiment is described as follows: Evaluated for inhibitory growth of Pneumocystis carinii cysts in lungs administered at the dose of 10 mg/kg expressed as number of cysts/lungs for 8 weeks. The experiment is classed as functional.
Experiment [14] relates to Pneumocystis carinii. Put plainly: Evaluated for inhibitory growth of Pneumocystis carinii cysts in lungs administered at the dose of 10 mg/kg expressed as number of cysts/lungs for 3 weeks. The experiment is classed as functional.
For experiment [15], the species on record is Homo sapiens. Put plainly: Lytic concentration for hemolytic activity in human by akaishi method. The format is functional.
In experiment [16] the test system is Cryptococcus neoformans. Put plainly: In vitro inhibitory concentration degrees C for 48 hr. The format is functional, organism-based.
The species entered for experiment [17] is Mus musculus. Put plainly: Minimum lytic concentration that lysed red blood cells in mouse. The experiment is classed as functional.
The species named for experiment [18] is Homo sapiens. The experiment is described as follows: Minimum lytic concentration that lysed red blood cells in human. The format is functional.
The test system of experiment [19] is Candida albicans. Put plainly: Compound was tested for inhibitory activity against 1,3-beta-glucan synthase from Candida albicans 6406. The format is functional.
For experiment [20], the system named is Candida albicans. The experiment is described as follows: In vitro antifungal activity against Candida albicans FP578 at 37 degrees C for 22h. The format is functional, organism-based.

Structures are written as SMILES. In brackets after ≈: the same amount, converted by molar mass. Numbered stars: 1 amine (or outer) side, 2 acyl side, 3 side chain; on linkers, the order of the positions; unused ones are H or OH. Bridge positions count the residues as written; N and C are the ends. Square brackets hold non-standard residues; d marks the D form. Peptide text beside a SMILES is read from it. * marks the point of attachment. hTyr(3S-OH,4S-OH,3'-OSO3H) = N[C@H](C(=O)O)[C@H](O)[C@@H](O)c1ccc(O)c(OS(=O)(=O)O)c1; Orn(4R-OH,5R-OH) = O=C([C@H](C[C@@H](O)[C@@H](O)N[*:3])N[*:1])[*:2]; Orn(4R-OH,5S-OH) = O=C([C@H](C[C@@H](O)[C@H](O)N[*:3])N[*:1])[*:2]; hTyr(3S-OH,4S-OH) = N[C@H](C(=O)O)[C@H](O)[C@@H](O)c1ccc(O)cc1; Pro(3S-OH,4S-Me) = C[C@H]1CN[C@H](C(=O)O)[C@H]1O; Benzoyl(4-octyloxy) = CCCCCCCCOc1ccc(C(=O)*)cc1; Gln(3R-OH) = NC(=O)C[C@@H](O)[C@H](N)C(=O)O; Palmitoyl = CCCCCCCCCCCCCCCC(=O)*; Hyp = O=C(O)[C@@H]1C[C@@H](O)CN1 A value given as a limit tells only on which side of the number the result lay.

Consider `OC(Cn1cncn1)(Cn1cncn1)c1ccc(F)cc1F` [FLUCONAZOLE], for which the ED50 is under 1 mg/kg in [1] and 2.4 mg/kg in [2].
With `C[C@@H]1[C@H](O)[C@@H](C)/C=C/C=C/C=C/C=C/C=C/C=C/C=C/[C@H](O[C@@H]2O[C@H](C)[C@@H](O)[C@H](N)[C@@H]2O)C[C@@H]2O[C@](O)(C[C@@H](O)C[C@@H](O)[C@H](O)CC[C@@H](O)C[C@@H](O)CC(=O)O[C@H]1C)C[C@H](O)[C@H]2C(=O)O` [AMPHOTERICIN B], the IC50 worked out at 0.62 µg/mL (≈ 0.671 µM) in experiment [3]; 0.39 µg/mL (≈ 0.422 µM) in experiment [4]; 0.39 µg/mL (≈ 0.422 µM) in experiment [5]; 1.6 µg/mL (≈ 1.73 µM) in [6]; 0.55 µg/mL (≈ 0.595 µM) in experiment [7]; 0.39 µg/mL (≈ 0.422 µM) in experiment [8]. The IC50 was found to be 0.47 µg/mL (≈ 0.509 µM) in [9], 0.62 µg/mL (≈ 0.671 µM) in experiment [10], 0.39 µg/mL (≈ 0.422 µM) in [11] and 1.9 µg/mL (≈ 2.06 µM) in [12].
`COc1cc(Cc2cnc(N)nc2N)cc(OC)c1OC.Cc1cc(NS(=O)(=O)c2ccc(N)cc2)no1` [CO-TRIMOXAZOLE]: the Activity in [13] is given as 4.1; in experiment [14], under 1.8.
On to `CCCCCCCCOc1ccc(C(=O)N[C@H]2C[C@@H](O)[C@@H](O)NC(=O)[C@@H]3[C@@H](O)[C@@H](C)CN3C(=O)[C@H]([C@@H](C)O)NC(=O)[C@H]([C@H](O)[C@@H](O)c3ccc(O)cc3)NC(=O)[C@@H]3C[C@@H](O)CN3C(=O)[C@H]([C@@H](C)O)NC2=O)cc1` [CILOFUNGIN] ({Benzoyl(4-octyloxy)}-[Orn(4R-OH,5R-OH)]T[Hyp][hTyr(3S-OH,4S-OH)]T[Pro(3S-OH,4S-Me)]; lactam 1-C), for which the ED50 in experiment [1] was 5 mg/kg; in [2] it was over 10 mg/kg. Moreover, the 50% inhibitory concentration (IC50) in experiment [3] worked out at 0.94 µg/mL (≈ 0.912 µM); in [4], 0.36 µg/mL (≈ 0.349 µM); in [5] it was 0.47 µg/mL (≈ 0.456 µM); in experiment [6] it was 3.2 µg/mL (≈ 3.11 µM); in experiment [7], 0.24 µg/mL (≈ 0.233 µM); in experiment [8], 0.39 µg/mL (≈ 0.379 µM). For the same compound, the IC50 in experiment [9] was 0.94 µg/mL (≈ 0.912 µM); in experiment [10], over 0.003 µg/mL; in experiment [16] it was over 2.5 µg/mL; in experiment [12], 0.08 µg/mL (≈ 0.0777 µM). This compound had an LC30 in experiment [15] of over 500 µg/mL. Besides, the MLC was over 500 µg/mL in experiment [17] and over 1000 µg/mL in experiment [18].
`C[C@@H]([C@H](N)C(=O)N[C@H](C(=O)O)[C@H]1O[C@@H](n2cc(C=O)nc2O)[C@H](O)[C@@H]1O)[C@H](O)c1ccc(O)cn1` displayed an IC50 in experiment [19] of over 100 µg/mL.
Regarding `CCCCCCCCOc1ccc(C(=O)N[C@H]2C[C@@H](O)[C@H](O)NC(=O)[C@@H]3[C@@H](O)[C@@H](C)CN3C(=O)[C@H]([C@H](O)CC(N)=O)NC(=O)[C@H]([C@H](O)[C@@H](O)c3ccc(O)c(OS(=O)(=O)[O-])c3)NC(=O)[C@@H]3C[C@@H](O)CN3C(=O)[C@H]([C@@H](C)O)NC2=O)cc1.[Na+]` [FR-131535] ({Benzoyl(4-octyloxy)}-[Orn(4R-OH,5S-OH)]T[Hyp][hTyr(3S-OH,4S-OH,3'-OSO3H)][Gln(3R-OH)][Pro(3S-OH,4S-Me)]; lactam 1-C), the ED50 stood at 3 mg/kg in experiment [1] and 3.5 mg/kg in experiment [2]. The IC50 turned out to be 0.47 µg/mL in experiment [3]; 0.31 µg/mL in [20]; 2.8 µg/mL in experiment [19]; 0.47 µg/mL in [5]; 1.9 µg/mL in experiment [6]; 0.39 µg/mL in experiment [7]. Moreover, the IC50 in experiment [8] is 0.47 µg/mL; in experiment [9], 1.35 µg/mL; in experiment [10], under 0.003 µg/mL; in experiment [11], over 2.5 µg/mL; in experiment [12], 0.16 µg/mL. Moreover, the figures for the Activity in experiment [13] and in experiment [14] were 2.3 and under 1.8, respectively. Also, the LC30 in experiment [15] was over 500 µg/mL. Besides, the MLC was over 500 µg/mL in [17] and over 1000 µg/mL in experiment [18].
Consider `CCCCCCCCCCCCCCCC(=O)N[C@H]1C[C@@H](O)[C@H](O)NC(=O)[C@@H]2[C@@H](O)[C@@H](C)CN2C(=O)[C@H]([C@H](O)CC(N)=O)NC(=O)[C@H]([C@H](O)[C@@H](O)c2ccc(O)c(OS(=O)(=O)O)c2)NC(=O)[C@@H]2C[C@@H](O)CN2C(=O)[C@H]([C@@H](C)O)NC1=O` (Palmitoyl-[Orn(4R-OH,5S-OH)]T[Hyp][hTyr(3S-OH,4S-OH,3'-OSO3H)][Gln(3R-OH)][Pro(3S-OH,4S-Me)]; lactam 1-C), for which the ED50 in [1] was found to be 1.1 mg/kg; in experiment [2], 2.9 mg/kg. Also, the IC50 in [3] was 0.09 µg/mL (≈ 0.0766 µM); in experiment [20], 0.025 µg/mL (≈ 0.0213 µM); in [19], 0.7 µg/mL (≈ 0.596 µM); in experiment [5], 0.018 µg/mL (≈ 0.0153 µM); in experiment [6], 0.14 µg/mL (≈ 0.119 µM); in experiment [7], 0.004 µg/mL (≈ 0.0034 µM). In addition, the IC50 was 0.018 µg/mL (≈ 0.0153 µM) in experiment [8]; 0.03 µg/mL (≈ 0.0255 µM) in experiment [9]; 1.3 µg/mL (≈ 1.11 µM) in experiment [10]; over 2.5 µg/mL in experiment [11]; 0.004 µg/mL (≈ 0.0034 µM) in experiment [12]. The Activity is reported as 2 in experiment [13] and under 1.8 in experiment [14]. This compound yielded an LC30 in [15] of 160 µg/mL (≈ 136 µM). In addition, the MLC in [17] and in experiment [18] was 31 µg/mL (≈ 26.4 µM) in each case.
